From PubChem BioAssay (NCI)
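Interpolation was linear, between the two tested concentrations surrounding the appropriate level; five concentrations were tested over 48 hours in 96-well plates. TGI: total growth inhibition.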

Key:
Assay in all cases: NCI anticancer screen, dose series, 48 h
SF-268 CNS = system: SF-268 CNS
HCT-116 colon = system: HCT-116 colon
MDA-MB-435 = system: MDA-MB-435
MDA-MB-231 breast = system: MDA-MB-231 breast
HCT-15 colon = system: HCT-15 colon
ACHN renal = system: ACHN renal
SK-OV-3 ovarian = system: SK-OV-3 ovarian
HS 578T breast = system: HS 578T breast
SN12C renal = system: SN12C renal
SNB-75 CNS = system: SNB-75 CNS
SK-MEL-2 melanoma = system: SK-MEL-2 melanoma
T-47D breast = system: T-47D breast
SF-539 CNS = system: SF-539 CNS
PC-3 prostate = system: PC-3 prostate
OVCAR-8 ovarian = system: OVCAR-8 ovarian
UACC-62 melanoma = system: UACC-62 melanoma
NCI-H460 lung = system: NCI-H460 lung
MOLT-4 leukemia = system: MOLT-4 leukemia
RXF 393 renal = system: RXF 393 renal
BT-549 breast = system: BT-549 breast
NCI-H23 lung = system: NCI-H23 lung
IGROV1 ovarian = system: IGROV1 ovarian
LOX IMVI melanoma = system: LOX IMVI melanoma
DU-145 prostate = system: DU-145 prostate
NCI/ADR-RES ovarian = system: NCI/ADR-RES ovarian
COLO 205 colon = system: COLO 205 colon
EKVX NSCLC = system: EKVX NSCLC
OVCAR-4 ovarian = system: OVCAR-4 ovarian
MDA-N = system: MDA-N
CAKI-1 renal = system: CAKI-1 renal
RPMI-8226 leukemia = system: RPMI-8226 leukemia
MCF7 breast = system: MCF7 breast
UO-31 renal = system: UO-31 renal
K-562 leukemia = system: K-562 leukemia
CCRF-CEM leukemia = system: CCRF-CEM leukemia
A549 NSCLC = system: A549 NSCLC
OVCAR-5 ovarian = system: OVCAR-5 ovarian
MALME-3M melanoma = system: MALME-3M melanoma
KM12 colon = system: KM12 colon
UACC-257 melanoma = system: UACC-257 melanoma
A498 renal = system: A498 renal
NCI-H226 lung = system: NCI-H226 lung
HOP-62 NSCLC = system: HOP-62 NSCLC
SR leukemia = system: SR leukemia
SW-620 colon = system: SW-620 colon
HOP-92 NSCLC = system: HOP-92 NSCLC
OVCAR-3 ovarian = system: OVCAR-3 ovarian
SF-295 CNS = system: SF-295 CNS
U251 CNS = system: U251 CNS
786-0 renal = system: 786-0 renal
SK-MEL-28 melanoma = system: SK-MEL-28 melanoma
TK-10 renal = system: TK-10 renal
HT29 colon = system: HT29 colon
HL-60(TB) leukemia = system: HL-60(TB) leukemia
NCI-H522 lung = system: NCI-H522 lung
SK-MEL-5 melanoma = system: SK-MEL-5 melanoma
M14 melanoma = system: M14 melanoma
HCC-2998 colon = system: HCC-2998 colon
SNB-19 CNS = system: SNB-19 CNS

Measured: TGI

CCC(CC)(CO)CNc1cc(Cl)nc(N)n1
not listed: M14 melanoma | HCC-2998 colon | SNB-19 CNS
> 100 µM: all other assays above

CC1(C)C2CCC1C(=O)[C@@]1(C=CC(=O)CC1)C2 (some centres not stated)
not listed: SK-MEL-2 melanoma | CAKI-1 renal | A498 renal
> 100 µM: all other assays above
